Patent US20060293291A1, “2-Propylidene-19-nor-vitamin d compounds” (priority 2003, published 2006)

Legend:
[1] = test system: intestinal calcium transport; assay: Intestinal calcium transport, everted gut sac method; type: in vivo, Sprague-Dawley rats; conditions: rats, four consecutive ip doses, FIG. 5
Method: (§1) FIGS. 5 and 6—Intestinal Calcium Transport and Bone Calcium Mobilization
(§2) Male, weanling Sprague-Dawley rats were placed on Diet 11 (0.47% Ca) diet+AEK for one week followed by Diet 11 (0.02% Ca)+AEK for 3 weeks. The rats were then switched to a diet containing 0.47% Ca for one week followed by two weeks on a diet containing 0.02% Ca. Dose administration began during the last week on 0.02% calcium diet. Four consecutive ip doses-were given approximately 24 hours apart. Twenty-four hours after the last dose, blood was collected from the severed neck and the concentration of serum calcium determined as a measure of bone calcium mobilization. The first 10 cm of the intestine was also collected for intestinal calcium transport analysis using the everted gut sac method.

[2] = test system: bone calcium mobilization; assay: Bone calcium mobilization (serum calcium); type: in vivo, Sprague-Dawley rats; conditions: rats, four consecutive ip doses, FIG. 6
Method: as §1, §2

[3] = test system: 24-hydroxylase (24OHase) gene promoter; assay: Transcription activation, 24-hydroxylase promoter luciferase reporter in ROS 17/2.8 (bone) cells; type: cell-based; conditions: ROS 17/2.8 cells, luciferase 16 hours after dosing, FIG. 4
Method: FIG. 4—Transcription Activation
Transcriptional activity was measured in ROS 17/2.8 (bone) cells that were stably transfected with a 24-hydroxylase (24OHase) gene promoter upstream of a luciferase reporter gene (Arbour et al., 1998). Cells were given a range of doses. Sixteen hours after dosing the cells were harvested and luciferase activities were measured using a luminometer.
“RLU” in FIG. 4 refers to relative luciferase units.

[4] = biological target: T1, recombinantly produced rat receptor (1α,25-dihydroxyvitamin D receptor) (Rattus norvegicus, UniProt P13053); assay: Competitive VDR binding; conditions: FIGS. 1 and 2
T1 construct: made in house
T1 sequence (P13053 1-423): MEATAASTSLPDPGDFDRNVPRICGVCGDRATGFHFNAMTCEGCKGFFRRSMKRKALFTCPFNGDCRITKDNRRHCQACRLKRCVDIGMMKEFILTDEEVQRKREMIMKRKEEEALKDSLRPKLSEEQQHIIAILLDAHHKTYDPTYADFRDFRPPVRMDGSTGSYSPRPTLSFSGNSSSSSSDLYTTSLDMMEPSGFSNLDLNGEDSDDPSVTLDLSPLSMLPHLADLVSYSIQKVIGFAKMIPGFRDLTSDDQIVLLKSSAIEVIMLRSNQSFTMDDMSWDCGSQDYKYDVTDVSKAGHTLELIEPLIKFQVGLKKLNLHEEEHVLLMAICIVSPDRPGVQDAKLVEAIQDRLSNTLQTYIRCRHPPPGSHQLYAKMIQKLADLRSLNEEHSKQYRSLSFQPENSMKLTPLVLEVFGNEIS
Method: FIGS. 1 and 2—Competitive VDR Binding
Competitive binding of the analogs to the porcine intestinal receptor was carried out by the method described by Dame et al (Biochemistry 25, 4523-4534, 1986), except the recombinantly produced rat receptor was used as the receptor (see Vanhooke et al., Biochemistry, in press, 2004).

[5] = test system: human leukemia cells (HL-60 cells); assay: HL-60 cell differentiation (NBT reduction); type: cell-based; conditions: NBT assay; for potency in promoting the differentiation of leukemia cells: HL-60 cells to monocytes, FIG. 3; for percent of HL-60 cells induced to differentiate: concentration 1×10^−7 M
Method: FIG. 3—EL-60 Cell Differentiation
The differentiation of HL-60 promyelocytic into monocytes was determined as described by Ostrem et al (J. Biol. Chem. 262, 14164-14171, 1987).
Differentiation activity was assessed by a standard differentiation assay, abbreviated as NBT reduction (nitroblue tetrazolium reduction). The assay was conducted according to known procedures, as given, for example, by DeLuca et al U.S. Pat. No. 4,717,721 and Ostrem et al, J. Biol. Chem. 262, 14164, 1987. For the assay, the differentiation activity of the test compounds is expressed in terms of the percent of HL-60 cells having differentiated to normal cells in response to a given concentration of test compound.

Compound	intestinal calcium transport activity [1]	intestinal calcium transport activity compared with 2MD [1]	ability to mobilize calcium from bone [2]	bone calcium mobilization compared with 2MD [2]	transcriptional activity in bone cells [3]	activity in binding to the 1α,25-hydroxyvitamin D3 rat receptor [4]	potency in promoting the differentiation of leukemia cells [5]	percent of HL-60 cells induced to differentiate [5]
2-[(3′-methoxymethoxy)propylidene]-19-nor-1α,25-dihydroxyvitamin D3 [F-Wit]	relatively high intestinal calcium transport activity	more active than 2M	significant ability to mobilize calcium from bone	less active in this regard than 2MD	significant transcriptional activity	very active	as potent as 1α,25-dihydroxyvitamin D3 and 2MD	the same degree of differentiation
C=C1/C(=C\C=C2/CCC[C@]3(C)[C@@H]([C@H](C)CCCC(C)(C)O)CC[C@@H]23)C[C@@H](O)C[C@@H]1O [1α,25-dihydroxyvitamin D3, reference compound]	–	–	–	–	–	–	–	~90%
(20R)-1α,25-dihydroxy-2-[3′-hydroxypropylidene]-19-norvitamin D3 [1AGR]	relatively high intestinal calcium transport activity	more active than 2M	significant ability to mobilize calcium from bone	less active in this regard than 2MD	significant transcriptional activity	very active	as potent as 1α,25-dihydroxyvitamin D3 and 2MD	the same degree of differentiation
(20S)-1α,25-dihydroxy-2-[3′-hydroxypropylidene]-19-norvitamin D3 [1AGS]	relatively high intestinal calcium transport activity	more active than 2M	significant ability to mobilize calcium from bone	less active in this regard than 2MD	significant transcriptional activity	very active	as potent as 1α,25-dihydroxyvitamin D3 and 2MD	the same degree of differentiation
